In US9546196B2, “Compositions and methods of treatment of cancers” (The University of Toledo, priority 2009, dated 2017):

What was measured:
[1] = system: PC-3 prostate cancer cells; experiment: PC-3 cell density with peptide; assay type: cell-based; conditions: even at 100 μM; 3 or 6 days; no endogenous sGCα1
Procedure: FIG. 17A: PC-3 prostate cancer cells were grown for 3 or 6 days in the presence of increasing concentration of Peptide A-8R [SEQ ID NO: 1] or vehicle and then cell density was measured.

[2] = system: C81 (androgen-refractory LNCaP) cells; experiment: C81 cell density with peptide; assay type: cell-based; conditions: 10 μM peptide; 1-8 hrs
Procedure: FIG. 15B: C81 (androgen-refractory LNCaP) cells were grown for 1-8 hrs in the presence of 10 μM Peptide A-8R [SEQ ID NO: 1] or vehicle and then cell density was measured.
(§1) To measure how rapid the cytotoxic effect of Peptide A-8R [SEQ ID NO: 1] occurs, LNCaP cells were treated with 10 μM peptide and incubated for 1-8 hrs. […] Using the same conditions, C81 cells were used to study the peptide effect on hormone-refractory prostate cancer cells.

[3] = system: CWR22-Rv1 (androgen-refractory) cells; experiment: CWR22-Rv1 cell density with peptide; assay type: cell-based; conditions: 10 μM peptide; 1-8 hrs
Procedure: FIG. 15C: CWR22-Rv1 (androgen-refractory) cells were grown for 1-8 hrs in the presence of 10 μM Peptide A-8R [SEQ ID NO: 1] or vehicle and then cell density was measured.
as §1

[4] = system: Capan-2 pancreatic cancer cells; experiment: Capan-2 cell density with peptide; assay type: cell-based; conditions: increasing concentration; 3 or 5 days
Procedure: FIG. 21B: Capan-2 pancreatic cancer cells were grown for 3 or 5 days in the presence of increasing concentration of Peptide A-8R [SEQ ID NO: 1] or vehicle and then cell density was measured.
To determine if Peptide A-8R [SEQ ID NO: 1] can be cytotoxic to other cancer cells, a pancreatic cancer cell line, Capan-2, was also tested.

LNCaP xenograft tumors = LNCaP xenograft tumors in nude mice, intratumoral injection; assay type: in vivo
Procedure: FIG. 20: Peptide A-8R [SEQ ID NO: 1] inhibits the growth of LNCaP prostate xenograft tumors. LNCaP xenograft tumors were grown in nude mice to a size of 200-400 cubic mm and then treated with daily intratumoral injections of either Peptide A-8R [SEQ ID NO: 1] (80 mg/kg of animal) or Vehicle (DMSO) for seven days, after which the tumors were left untreated and allowed to grow for an additional 2-3 weeks. Each point represents the average tumor size of three animals plus/minus the standard deviations. Note that open squares or circles represent no treatment of either Peptide A-8R [SEQ ID NO: 1] or vehicle.
This was analyzed using LNCaP xenograft tumors established in nude mice and direct injection of Peptide A-8R [SEQ ID NO: 1] (FIG. 20).

Caspase 3/7 = Caspase 3/7 activity in LNCaP cells; assay type: cell-based; conditions: 10 mM Peptide A-8R
Procedure: FIG. 18A: LNCaP cells were grown for 1-24 hrs in the presence of vehicle, […] Peptide A-8R [SEQ ID NO: 1], or […] Etoposide and then measured for Caspase 3/7 activity.
To determine if the cytotoxicity of Peptide A-8R [SEQ ID NO: 1] is through apoptosis, LNCaP cells were monitored for Caspase 3/7 activity. […] Thus, Peptide A-8R [SEQ ID NO: 1] was able to induce Caspase 3/7 activity much faster than the well-studied apoptosis-inducing drug Etoposide. To confirm that the Peptide was killing cells via apoptosis, the inventors used the pan-caspase inhibitor Z-VAD-FMK.

LNCaP cell culture = assay type: cell-based
Description: In one non-limiting example, Peptide A-8R [SEQ ID NO: 1] can be truncated to a smaller peptide that retains the same type of biological activity profile. In certain embodiments, truncating Peptide A-8R [SEQ ID NO: 1] results in greater potency upon conversion of some of the pharmacophore functionalities to peptidomimetic groups that can, in turn, enhance key interactions by lowering the net binding energy. In one experiment, Peptide A-8R [SEQ ID NO: 1] was divided into two parts, using the central proline residue as the division point. […] A minimum number of amino acids desired for cytotoxicity was then identified. […] The following Peptide A truncated and derivative probes were synthesized and evaluated for their effect on cytotoxicity after 3- and 6-day exposures:
The following table lists cell culture data for truncated Peptide A peptides. The amino acid sequences and IC50 values in μM concentrations depict cytotoxicity after 3- and 6-day exposures (“NotA” means not active). “8R” [SEQ ID NO: 6] signifies that 8 arginines are present on the carboxy terminus to mediate membrane translocation. The data has shown that the 8R terminus [SEQ ID NO: 6] can be either as the free carboxy (—OH) or amide (—NH2) with no alteration of permeation or observed activity.
The table below lists LNCaP cell culture data for various Peptide A derivatives, displaying the observed IC50 values in μM concentrations after 3- and 6-day exposures.

[5] = system: Cos monkey kidney cancer cells; experiment: Cos cell density with peptide; assay type: cell-based; conditions: even at 100 μM; 2 or 4 days; no endogenous sGCα1
Procedure: FIG. 17B: Cos monkey kidney cancer cells were grown for 2 or 4 days in the presence of increasing concentration of Peptide A-8R [SEQ ID NO: 1] or vehicle and then cell density was measured.

Ac-TFCKAFPFHIIRRRRRRRR-OH [Peptide A-8R]
effect on PC-3 cells [1]: little to no effect
killing of C81 cells [2]: very effective at killing
killing of CWR22-Rv1 cells [3]: able to kill
cytotoxicity to Capan-2 cells [4]: strongly cytotoxic
tumor growth during treatment (LNCaP xenograft tumors; 80 mg/kg daily intratumoral, seven daily injections): strongly inhibited tumor growth and actually caused tumor regression
tumor growth after stopping peptide injection (LNCaP xenograft tumors; additional 2-3 weeks untreated, versus Vehicle): grew significantly more slowly
increase in caspase activity (Caspase 3/7; after 8 hrs): ~4 fold
caspase activity (Caspase 3/7; after 24 hrs): diminished to Vehicle levels
increase in caspase activity (Caspase 3/7; by 1 hour): 2 fold
Cytotoxicity (LNCaP cell culture): Yes
effect on Cos cells [5]: little to no effect
